{"source": "patent US11396497B2", "about": "“Proteasome inhibitors” (New Mexico Tech University Research Park Corporation, priority 2018, dated 2022)", "key": {"[1]": {"target": "T1, ChT-L activity of 26S proteasomes in intact MCF-7 cells (Homo sapiens, UniProt P28074)", "T1 construct": "endogenous in cells; host or cells: MCF7 cells (treated intact, then lysed)", "T1 sequence (P28074 60-263)": "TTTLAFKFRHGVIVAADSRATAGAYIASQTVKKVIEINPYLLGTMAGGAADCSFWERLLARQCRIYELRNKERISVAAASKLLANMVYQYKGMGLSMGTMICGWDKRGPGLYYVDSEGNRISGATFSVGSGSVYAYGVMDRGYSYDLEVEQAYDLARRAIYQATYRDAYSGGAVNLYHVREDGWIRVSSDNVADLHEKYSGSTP", "assay": "Cell infiltration of PIs: proteasome inhibition in intact MCF7 cells", "assay_type": "cell-based", "conditions": "intact MCF-7 cells treated, washed, lysed", "experimental": "100 μL MCF7 cells at a concentration of 500,000 cells/mL were added to a 96 well microtiter plate and incubated overnight at 37° C. and 5% CO2 to allow cells to adhere at 100% confluency. The cells were treated and then incubated for at 37° C. and 5% CO2 for 1 hour as a standard time to allow for drug infiltration. […] The plate was rocked on ice for 1 hr and then 90 μL of cell lysate was transferred to a black 96 well microtiter plate. 10 μL of lysis buffer was added to the top of all wells containing treated cells and one set of control wells. 10 μL of 1 mM of compound 8 was added to the second set of control wells as a positive control for proteasome inhibition. The plate was then incubated at 37° C. for 15 minutes to allow for control drug binding. Chymotrypsin-like activity was then measured by adding 10 μL of 100 μM Suc-LLVY-AMC in lysis buffer to each well and then incubating for 1 h at 37° C. […] Standard deviation for cell infiltration was calculated by propagating the error from the two IC50 values.\nThe difference between proteasome inhibition within intact versus lysed cells was evaluated as a representative measure of PIs ability to infiltrate cells and access intracellular proteasomes. […] Assays were performed in biological triplicate, and the data points are reported with the corresponding standard deviations. […]"}, "MCF7 cells": {"test_system": "MCF7 cells", "assay": "MTT assay cytotoxicity MCF7", "conditions": "Homo sapiens", "description": "The cells were incubated at 37° C. in a humidified atmosphere with 5% CO2.\n100 μL of cells were added to each well of a 96 well microtiter plate at a concentration of 4×10^4 cells/mL and incubated overnight to allow proper adhesion. (RPMI 8226 cells were plated at 4×10^5 cells/mL). The cells were treated with the panel of test compounds at a series of concentrations, along with vehicle control DMSO and untreated cells as controls. After 48 h incubation, 20 μL of MTT reagent (3-(4,5-dimethylthiazol-2-yl)-2,5-diphenyltetrazolium bromide) in PBS (5 mg/mL) was added to each well of the plates. The plate was incubated for 2 h at 37° C. For adherent cell lines, the media was removed from each well of the plate and the resulting formazan crystals dissolved in 100 μL of DMSO. For RPMI 8226 cells, 200 ul of DMF/SDS mix (50% DMF. 10% w/v SDS pH<4) was used to solubilize the formazan crystals. Optical density (OD) at 490 nm was measured using a microplate reader. Cells treated with 1 μM phenyl arsine oxide (PAO) served as a positive cell-killing control. Technical replicates of these assays were performed in biological quadruplicate, and the three best values were used for analysis in order to eliminate outliers. Data presented are the average IC50 value calculated from at least 3 technical replicates with the corresponding standard deviation."}}, "note": "Like-named read-outs stand apart in the source and are kept apart here.", "data": [{"molecule": "CC[C@H](C)[C@@H]1C(=O)O[C@H]1C(=O)N[C@H](C(=O)N[C@H](C(=O)OCc1ccccc1)C(C)C)C(C)C", "note": "[Compound 8, Benzyl ((2R,3S)-3-((S)-sec-butyl)-4-oxooxetane-2-carbonyl)-L-valyl-L-valinate]", "values": [{"measurement": "times more active than compound 1, proteasome inhibition in intact cells", "setting": "[1]", "result": "approximately 10 times"}, {"measurement": "IC50", "setting": "MCF7 cells; MCF7, 48 h, read-out: Cytotoxicity MCF7 IC50", "result": "1410 ± 687", "unit": "nM"}, {"measurement": "IC50", "setting": "MCF7 cells; MCF7, read-out: Cytotoxicity MCF7 IC50", "result": "1850 ± 261", "unit": "nM"}]}]}
